System: mTOR
Assay: Hypothalamic mTOR phosphorylation (western blot) after acute oral gavage
Type: in vivo
Conditions: oral 500 mg/kg, adult male Wistar rats, hypothalamus, FIG. 3F
Method: After 18 hours of fasting, D-Pinitol dissolved in water was administered acutely by gavage (100 mg/kg in a first study, and 500 mg/kg in a subsequent study). After administration, the animals were sacrificed in groups at different times (being time 0 the administration of D-Pinitol). For the first study (100 mg/kg), groups of animals were sacrificed at times: 10, 20, 30, 60, 120, 240 and 360 minutes after administration; for the second study (500 mg/kg), animals were sacrificed at times: 60, 120 and 240 minutes after administration. As a control group, a group was administered only with water (by gavage). Animals were anesthetized with sodium pentobarbital (50 mg/Kg, i.p.), blood, brain and liver samples were collected. Blood was centrifuged (2100 g for 8 min, 4° C.) and the plasma kept for further analysis. Liver and brain samples were flash-frozen in liquid N2, then stored at −80° C. until further analysis. Brain extract. […] The expression of protein including mTOR (289 kDa) and Adaptin (100 kDa) were analysed by western blot. […] Bands were quantified by densitometric analysis using ImageJ software (Rasband, WS, Image), US National Institutes of Health, Bethesda, Md., USA).

Structure (SMILES): COC1[C@@H](O)[C@@H](O)C(O)[C@H](O)[C@H]1O (stereo partly drawn) [DPIN, (1S,2S,4S,5R)-6-methoxycyclohexane-1,2,3,4,5-pentol]
- hypothalamic mTOR signaling through its phosphorylation: activation
